Reference: BindingDB's records for doi:10.1021/acsmedchemlett.0c00432 (Vanderbilt University, 2020)

Target: Metabotropic glutamate receptor 7 (Rattus norvegicus, UniProt P35400)
Test: Positive allosteric modulation of rat mGlu7 receptor expressed in HEK293 cells co-expressing Gai5 assessed as potentiation of L-AP4-induced calcium mobilization preincubated for 140 secs and treated with EC20 L-AP4 for 125 secs and followed by subsequent addition of EC80 L-AP4 by Fluo-4-AM dye based fluorescence assay

Chain of Metabotropic glutamate receptor 7 (P35400 whole entry): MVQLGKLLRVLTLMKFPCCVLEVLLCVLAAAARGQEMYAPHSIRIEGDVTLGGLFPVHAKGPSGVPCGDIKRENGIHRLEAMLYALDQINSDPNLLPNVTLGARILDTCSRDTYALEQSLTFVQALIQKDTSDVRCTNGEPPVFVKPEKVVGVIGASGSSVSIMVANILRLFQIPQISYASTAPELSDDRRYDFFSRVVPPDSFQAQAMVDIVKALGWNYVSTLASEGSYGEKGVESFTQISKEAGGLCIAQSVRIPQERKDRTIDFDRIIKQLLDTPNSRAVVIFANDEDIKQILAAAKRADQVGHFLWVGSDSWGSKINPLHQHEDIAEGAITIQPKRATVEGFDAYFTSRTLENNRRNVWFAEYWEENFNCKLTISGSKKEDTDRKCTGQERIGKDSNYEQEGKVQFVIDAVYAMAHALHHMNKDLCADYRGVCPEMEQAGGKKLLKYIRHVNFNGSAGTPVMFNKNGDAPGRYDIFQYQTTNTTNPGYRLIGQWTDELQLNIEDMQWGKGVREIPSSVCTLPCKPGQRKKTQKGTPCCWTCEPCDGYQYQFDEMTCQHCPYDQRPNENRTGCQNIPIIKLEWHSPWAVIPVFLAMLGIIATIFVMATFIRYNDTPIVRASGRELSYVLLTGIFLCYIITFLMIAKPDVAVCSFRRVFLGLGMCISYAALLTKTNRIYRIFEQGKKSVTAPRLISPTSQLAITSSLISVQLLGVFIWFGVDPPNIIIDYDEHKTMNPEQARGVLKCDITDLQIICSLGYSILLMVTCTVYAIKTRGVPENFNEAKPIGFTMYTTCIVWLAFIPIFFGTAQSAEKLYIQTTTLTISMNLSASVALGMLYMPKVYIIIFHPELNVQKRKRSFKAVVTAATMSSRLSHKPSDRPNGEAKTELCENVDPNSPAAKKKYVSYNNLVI

EC50: 1.54 µM
Structure (SMILES): N#Cc1cnc2c(OC3CCOC3)cccc2c1N1CCN(c2ccccc2F)CC1 (stereo unspecified)
